Laboratory results reported in US10919878B2, “MCT4 inhibitors and uses thereof” (CHARLES R. DREW UNIVERSITY OF MEDICINE AND SCIENCE, priority 2018, dated 2021).

What was measured:
MDA-MB-231 cells = test: Viability/cytotoxicity assay (growth inhibition); type: cell-based; settings: Homo sapiens, read-out: IC50, inhibition of cell proliferation
Experimental: Human cell lines MDA-MB-231 cells were obtained from ATCC (Rockville, Md.). These cells were authenticated by Laragen, Inc. (Culver City, Calif.), by short tandem repeat (STR) profiling, monitoring cell morphology and biological behavior, and tested to exclude mycoplasma contamination prior to use.
A viability/cytotoxicity assay was performed by culturing cells in 96-well plates. The following day the cells were treated with ½ serial dilutions of each compound or the solvent (DMSO) alone as a control. The amount of solvent was the same in all the conditions and each condition was tested in duplicate or triplicate. After 5 days incubation, the effect of the compounds on cell proliferation were determined by either MTT (3-(4,5-dimethylthiazol-2-yl)-2,5-diphenyltetrazolium bromide, Sigma-Aldrich, St. Louis, Mo.) or bioluminescence assay (Cell Titer Glo, Promega, Madison, Wis.). After incubation of the cells with MTT (1 mg/ml), the developed color was dissolved in DMSO and read by a plate reader. The bioluminescence assays were performed according to the manufacturer's recommendation. Growth inhibition rates were determined by comparing the read out for each compound dilution versus the control and from the growth inhibition curves from which the IC50 values were calculated. Each assay was performed at least twice.

MDA-MB-231 tumors = test: MDA-MB-231 TNBC xenograft tumor model in nude mice; type: in vivo; settings: 20 mg/kg intraperitoneally, up to 4 weeks; for tumor growth (size and weight): daily 5 days then 2 days rest
Experimental: Values represent mean±SD, n=6-8 mice/group.
Values represent mean±SD, n=8 mice/group.
The anti-tumor effects of the MCT4 inhibitors CB-1, CB-2 and/or CB-3 were evaluated in nude mice implanted with human triple negative breast cancer (TNBC) cells (MDA-MB-231). For TNBC xenograft tumor models, MDA-MB-231 (5×10^6) cancer cells were injected subcutaneously into the flanks of female athymic nude mice (nu/nu, 4 weeks old). Two weeks after the injection of cancer cells, xenograft tumors were found in the injection site. Tumor dimensions were measured, and volume was calculated by length (L), width (W), and height (H) using the formula (volume=π/6×L×W×H). After the tumors reached a volume of 50 mm^3, the mice were injected intraperitoneally with 20 mg/kg CB-1, CB-2, CB-3 or with the vehicle solution (DMSO; i.e., Control) for up to 4 weeks. The MCT4 inhibitors were injected daily for 5 days and then mice were rested for 2 days.

MCT4 = molecular target: T1, MCT4 (Homo sapiens, UniProt O15427); test: Lactate secretion assay (LACTATE-GLO Assay); type: cell-based; settings: MDA-MB-231 cells, compounds 2.5 μM, 48 h
T1 construct: host or cells: MDA-MB-231
T1 sequence (O15427 1-465): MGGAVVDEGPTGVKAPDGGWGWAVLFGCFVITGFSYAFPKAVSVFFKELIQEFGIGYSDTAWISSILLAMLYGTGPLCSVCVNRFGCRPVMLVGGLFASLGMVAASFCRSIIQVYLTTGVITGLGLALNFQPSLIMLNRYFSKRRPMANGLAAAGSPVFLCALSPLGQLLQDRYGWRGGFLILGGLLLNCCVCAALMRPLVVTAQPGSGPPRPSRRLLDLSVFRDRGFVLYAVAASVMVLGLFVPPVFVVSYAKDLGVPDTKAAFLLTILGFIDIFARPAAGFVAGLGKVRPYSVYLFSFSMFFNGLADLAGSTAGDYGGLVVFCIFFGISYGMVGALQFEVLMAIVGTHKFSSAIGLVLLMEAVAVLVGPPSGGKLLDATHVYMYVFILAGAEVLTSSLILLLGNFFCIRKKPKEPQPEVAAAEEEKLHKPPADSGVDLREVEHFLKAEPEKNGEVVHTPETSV
Experimental: Briefly, MDA-MB-231 cells were incubated with the various compounds (2.5 μM) for 48 h followed by a lactate secretion assay. […] Small compound names are shown on the x-axis. Diclofenac was used as a positive control.
MDA-MB-231 cells were incubated with various candidate compounds (2.5 μM) for 48 hours followed by lactate secretion assay with a LACTATE-GLO™ Assay kit (Promega Corporation, Madison, Wis.) according to the manufacturer's protocol.

SMILES | IC50 (MDA-MB-231 cells) [µM] | tumor growth (size and weight) (MDA-MB-231 tumors) | body weight of the mice (MDA-MB-231 tumors) | lactate secretion inhibition (MCT4) | signs of systemic toxicity (MDA-MB-231 tumors)
O=C(Nc1cc(Cl)ccc1Oc1ccc2ccccc2c1Br)c1cc(Cl)cc(I)c1O [CB-1, N-{2-[(1-bromo-2-naphthyl)oxy]-5-chlorophenyl}-5-chloro-2-hydroxy-3-iodobenzamide] | 35.3 | significantly inhibited tumor growth | began to lose weight |  | 
O=C(Nc1ccc(Nc2cc(-n3ccnc3)ncn2)cc1)Nc1cc(F)cc(F)c1 [CB-3, N-(3,5-difluorophenyl)-N′-(4-{[6-(1H-imidazol-1-yl)-4-pyrimidinyl]amino}phenyl)urea] |  | strikingly reduced the size and weight | without affecting body weight | most effective | no detectable signs of systemic toxicity
